Measured values reported in patent US8304206B2, “Mass spectrometry assays for identifying compounds that activate deacetylases” (Sirtris Pharmaceuticals, Inc., priority 2005, dated 2012).

Target: T1, SIRT1 (Homo sapiens, UniProt Q96EB6)
T1 sequence (Q96EB6 1-747): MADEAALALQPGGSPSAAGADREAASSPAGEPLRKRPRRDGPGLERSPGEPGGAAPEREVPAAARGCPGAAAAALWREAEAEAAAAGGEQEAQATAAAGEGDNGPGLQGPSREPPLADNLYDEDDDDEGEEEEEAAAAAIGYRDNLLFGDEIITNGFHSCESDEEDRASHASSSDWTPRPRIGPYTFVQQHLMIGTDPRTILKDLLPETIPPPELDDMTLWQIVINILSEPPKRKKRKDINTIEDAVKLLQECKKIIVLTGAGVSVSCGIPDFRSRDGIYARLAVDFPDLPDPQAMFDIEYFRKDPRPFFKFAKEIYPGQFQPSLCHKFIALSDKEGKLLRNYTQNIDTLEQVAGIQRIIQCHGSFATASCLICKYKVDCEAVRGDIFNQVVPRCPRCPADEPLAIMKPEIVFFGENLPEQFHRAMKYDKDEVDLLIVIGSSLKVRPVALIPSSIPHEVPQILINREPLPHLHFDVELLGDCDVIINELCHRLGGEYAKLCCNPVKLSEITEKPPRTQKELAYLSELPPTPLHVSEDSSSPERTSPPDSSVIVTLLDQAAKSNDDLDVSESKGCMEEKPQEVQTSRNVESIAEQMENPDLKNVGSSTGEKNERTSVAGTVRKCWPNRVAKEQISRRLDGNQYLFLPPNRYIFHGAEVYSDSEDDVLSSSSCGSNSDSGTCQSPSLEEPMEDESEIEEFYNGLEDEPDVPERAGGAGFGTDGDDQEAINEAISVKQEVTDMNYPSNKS
Assay: SIRT1 mass spectrometry assay (screening for activation)
Format: biochemical
Details: for FOLD ACTIVATION MS: activation of SIRT1, mass spectrometry; for EC50: activation of SIRT1, 0.5 μM peptide substrate (SEQ ID NO: 34), 120 μM NAD+, 10 nM SIRT1, 25 min, read-out: ED50 MS ASSAY

Structure (SMILES) | FOLD ACTIVATION MS | EC50
COc1ccc(C(=O)Nc2cccc(-c3nc4ncccc4o3)n2)c(OC)c1 [compound 69] | B (Fold Activation<250%) | –
CN(C)c1ccc(C(=O)Nc2cccc(-c3nc4ncccc4o3)n2)cc1 [compound 70] | B (Fold Activation<250%) | –
O=C(Nc1ccc2c(c1)OCO2)Nc1cccc(-c2nc3ncccc3o2)n1 [compound 71] | B (Fold Activation<250%) | –
COc1cc(C(=O)Nc2cc(-c3nc4ncccc4o3)ccn2)cc(OC)c1OC [compound 75] | B (Fold Activation<250%) | –
CN(C)c1cccc(C(=O)Nc2cc(-c3nc4ncccc4o3)ccn2)c1 [compound 76] | B (Fold Activation<250%) | –
COc1ccc(C(=O)Nc2cc(-c3nc4ccccc4o3)ccn2)cc1OC [compound 77] | B (Fold Activation<250%) | –
COc1ccc(C(=O)Nc2cccc(-c3csc(C)n3)c2)cc1OC [compound 80] | B (Fold Activation<250%) | –
COc1ccc(C(=O)Nc2cccc(-c3csc(C)n3)c2)c(OC)c1 [compound 81] | B (Fold Activation<250%) | –
COc1cc(SC)ccc1C(=O)Nc1cccc(-c2nncn2C)c1 [compound 83] | B (Fold Activation<250%) | –
COc1ccc(C(=O)Nc2cccc(-c3csc(-c4ccccc4)n3)c2)cc1OC [compound 84] | B (Fold Activation<250%) | –
Cc1nc(-c2cccc(Nc3nc4ccccc4o3)c2)cs1 [compound 92] | B (Fold Activation<250%) | –
c1cc(Nc2nc3ccccc3o2)cc(-c2nc3ncccc3o2)c1 [compound 93] | B (Fold Activation<250%) | –
c1cc(Nc2nc3ccccc3s2)cc(-c2nc3ncccc3o2)c1 [compound 95] | B (Fold Activation<250%) | < 50 µM
COc1ccc(C(=O)Nc2ccccc2-c2nc3ncccc3o2)cc1OC [compound 96] | B (Fold Activation<250%) | < 50 µM
CN(C)c1cccc(C(=O)Nc2ccccc2-c2nc3ncccc3o2)c1 [compound 97] | B (Fold Activation<250%) | < 50 µM
O=C(Nc1cccc(-c2nc3ccncc3s2)c1)Nc1ccc2c(c1)OCO2 [compound 99] | A (Fold activation>250%) | < 50 µM
COc1ccc(NC(=O)c2cccc(-c3nc4ncccc4o3)c2)c(OC)c1 [compound 100] | B (Fold Activation<250%) | –
COc1ccc(NC(=O)c2cccc(-c3nc4ncccc4o3)c2)cc1OC [compound 101] | A (Fold activation>250%) | –
COc1cc(NC(=O)c2cccc(-c3nc4ncccc4o3)c2)cc(OC)c1OC [compound 102] | A (Fold activation>250%) | –
c1cc(Nc2nc3ccccc3s2)nc(-c2nc3ncccc3o2)c1 [compound 104] | B (Fold Activation<250%) | < 50 µM

Structure (SMILES) | FOLD ACTIVATION MS | EC50
c1cc(Nc2nc3ccccc3o2)nc(-c2nc3ncccc3o2)c1 [compound 105] | B (Fold Activation<250%) | < 50 µM
COc1cc(C(=O)Nc2ccccc2-c2nc3ncccc3o2)cc(OC)c1OC [compound 106] | B (Fold Activation<250%) | < 50 µM
COc1cc(OC)cc(C(=O)Nc2ccccc2-c2nc3ccccc3[nH]2)c1 [compound 141] | B (Fold Activation<250%) | < 50 µM
COc1ccc(C(=O)Nc2ccccc2-c2nc3ccccc3[nH]2)cc1OC [compound 142] | A (Fold activation>250%) | < 50 µM
COc1ccc(C(=O)Nc2sccc2-c2nc3ccccc3s2)cc1OC [compound 145] | B (Fold Activation<250%) | < 50 µM
COc1cc(OC)cc(C(=O)Nc2sccc2-c2nc3ccccc3s2)c1 [compound 146] | B (Fold Activation<250%) | < 50 µM
COc1cc(C)ccc1C(=O)Nc1ccc(-c2nc3cccnc3[nH]2)cc1 [compound 149] | B (Fold Activation<250%) | < 50 µM
COc1ccc(C(=O)Nc2ccc(-c3nc4cccnc4[nH]3)cc2)cc1OC [compound 150] | B (Fold Activation<250%) | < 50 µM
COc1ccc(C(=O)Nc2cc(C(=O)NCCN(C)C)cc(-c3nc4ncccc4o3)c2)cc1OC [compound 153] | B (Fold Activation<250%) | –
CN(C)CCNC(=O)c1cc(NC(=O)c2cccc(N(C)C)c2)cc(-c2nc3ncccc3o2)c1 [compound 154] | A (Fold activation>250%) | –
COc1ccc(C(=O)Nc2cc(C(=O)NCCN(C)C)cc(-c3nc4ncccc4o3)c2)c(OC)c1 [compound 155] | B (Fold Activation<250%) | –
COc1ccc(C(=O)Nc2cc(CN(C)C)cc(-c3nc4ncccc4o3)c2)cc1OC [compound 156] | B (Fold Activation<250%) | –
CN(C)Cc1cc(NC(=O)c2cccc(N(C)C)c2)cc(-c2nc3ncccc3o2)c1 [compound 157] | B (Fold Activation<250%) | –
COc1ccc(C(=O)Nc2cc(CN(C)C)cc(-c3nc4ncccc4o3)c2)c(OC)c1 [compound 158] | B (Fold Activation<250%) | –
COc1ccc(C(=O)Nc2cc(CN3CCNCC3)cc(-c3nc4ncccc4o3)c2)cc1OC [compound 159] | B (Fold Activation<250%) | –
CN(C)c1cccc(C(=O)Nc2cc(CN3CCNCC3)cc(-c3nc4ncccc4o3)c2)c1 [compound 160] | A (Fold activation>250%) | –
COc1ccc(C(=O)Nc2cc(CN3CCNCC3)cc(-c3nc4ncccc4o3)c2)c(OC)c1 [compound 161] | A (Fold activation>250%) | –
COc1ccc(C(=O)Nc2ccccc2-c2nc3ccncc3s2)cc1OC [compound 162] | B (Fold Activation<250%) | < 50 µM
COc1cc(C(=O)Nc2ccccc2-c2nc3ccncc3s2)cc(OC)c1OC [compound 163] | B (Fold Activation<250%) | < 50 µM
COc1ccc(C(=O)Nc2cc(C(=O)N3CCNCC3)cc(-c3nc4ncccc4o3)c2)cc1OC [compound 164] | B (Fold Activation<250%) | –

Structure (SMILES) | FOLD ACTIVATION MS | EC50
CN(C)Cc1ccc2oc(-c3cccc(NC(=O)c4cccc(N(C)C)c4)c3)nc2n1 [compound 165] | A (Fold activation>250%) | –
CN(C)c1cccc(C(=O)Nc2cccc(-c3nc4nc(CN5CCNCC5)ccc4o3)c2)c1 [compound 166] | B (Fold Activation<250%) | –
Cc1ccc2oc(-c3cccc(NC(=O)c4cccc(N(C)C)c4)c3)nc2n1 [compound 167] | B (Fold Activation<250%) | –
CN(C(=O)Nc1ccccc1-c1nc2ccccc2[nH]1)c1ccccc1 [compound 169] | B (Fold Activation<250%) | < 50 µM
COc1cc(C(=O)Nc2cc(CN(C)C)cc(-c3nc4ccncc4s3)c2)cc(OC)c1OC [compound 174] | A (Fold activation>250%) | –
COc1ccc(C(=O)Nc2ccccc2-n2cccc2)cc1OC [compound 175] | B (Fold Activation<250%) | –
COc1cc(C(=O)Nc2ccccc2-n2cccn2)cc(OC)c1OC [compound 176] | B (Fold Activation<250%) | –
COc1ccc(C(=O)Nc2ccccc2-n2cccn2)cc1OC [compound 177] | B (Fold Activation<250%) | –
COc1ccc(C(=O)Nc2ccccc2-c2cn3cc(CN(C)C)sc3n2)cc1OC [compound 178] | A (Fold activation>250%) | –
COc1cc(C(=O)Nc2ccccc2-c2cn3cc(CN(C)C)sc3n2)cc(OC)c1OC [compound 179] | A (Fold activation>250%) | < 50 µM
CN(C)c1cccc(C(=O)Nc2ccc(-c3nc4cccnc4[nH]3)cc2)c1 [compound 180] | B (Fold Activation<250%) | –
COc1ccc(C(=O)Nc2cccc(-c3nc4cccnc4[nH]3)c2)c(OC)c1OC [compound 181] | A (Fold activation>250%) | < 50 µM
COc1cc(C)ccc1C(=O)Nc1cccc(-c2nc3cccnc3[nH]2)c1 [compound 182] | A (Fold activation>250%) | < 50 µM
CN(C)c1cccc(C(=O)Nc2cccc(-c3nc4ncccc4[nH]3)c2)c1 [compound 183] | A (Fold activation>250%) | –
COc1ccc(C(=O)Nc2cccc(-c3nc4ncccc4[nH]3)c2)c(OC)c1 [compound 184] | B (Fold Activation<250%) | < 50 µM
COc1ccc(C(=O)Nc2cccc(-c3nc4cccnc4[nH]3)c2)cc1OC [compound 185] | A (Fold activation>250%) | < 50 µM
COc1cc(C)ccc1C(=O)Nc1ccc(-c2cc3cccnc3o2)cc1 [compound 187] | B (Fold Activation<250%) | –
COc1ccc(C(=O)Nc2ccc(-c3cc4cccnc4o3)cc2)c(OC)c1 [compound 190] | B (Fold Activation<250%) | < 50 µM
COc1ccc(C(=O)Nc2cccc(-c3cc4cccnc4o3)c2)c(OC)c1 [compound 191] | B (Fold Activation<250%) | < 50 µM
